Where a SMILES comes first, the peptide text is derived from it. The star is where a group is joined. 5FAM = O=C1OC2(c3ccc(O)cc3Oc3cc(O)ccc32)c2ccc(C(=O)*)cc21

These results are taken from publication PMC10587871 (Bioconjugate Chemistry, 2023).

This series relates to MM6 cell line. Conditions: 5(6)-FAM-labeled peptides 10 μM, MM6 cells, 2 h, flow cytometry FITC channel, trypan blue quenching. On the technique in general: A flow cytometer gives signals particle by particle.

Consider `CC[C@H](C)[C@H](NC(=O)[C@H](C)NC(=O)[C@H](CCC(N)=O)NC(=O)[C@H](Cc1c[nH]c2ccccc12)NC(=O)[C@H](CC(C)C)NC(=O)[C@H](CCCCN)NC(=O)[C@H](CCCCN)NC(=O)[C@@H](NC(=O)[C@H](Cc1ccc(O)cc1)NC(=O)[C@H](C)NC(=O)c1ccc2c(c1)C(=O)OC21c2ccc(O)cc2Oc2cc(O)ccc21)[C@@H](C)O)C(=O)N[C@@H](CCCNC(=N)N)C(=O)N[C@@H](C)C(=O)N[C@@H](CCC(N)=O)C(=O)N[C@@H](CC(=O)O)C(=O)N[C@H](C(N)=O)C(C)C` [RpfA (377–391)] (5FAM-AYTKKLWQAIRAQDV-NH2), for which the “Internalization (cellular uptake) profile” value is recorded as “weak internalization profile”. Then `CC(C)[C@H](NC(=O)[C@H](C)NC(=O)[C@@H](NC(=O)CNC(=O)[C@H](C)NC(=O)c1ccc2c(c1)C(=O)OC21c2ccc(O)cc2Oc2cc(O)ccc21)[C@@H](C)O)C(=O)N[C@@H](CCC(N)=O)C(=O)N[C@@H](CC(=O)O)C(=O)N[C@@H](CO)C(=O)N[C@@H](CCCNC(=N)N)C(=O)N[C@@H](CO)C(=O)N[C@@H](Cc1c[nH]cn1)C(=O)N[C@H](C(=O)N[C@@H](Cc1ccc(O)cc1)C(=O)N[C@@H](C)C(=O)N[C@@H](Cc1c[nH]cn1)C(N)=O)C(C)C` [Rv1733c (63–77)] (5FAM-AGTAVQDSRSHVYAH-NH2), with “weak internalization profile”; and `C[C@H](NC(=O)[C@H](C)NC(=O)[C@H](CCCCN)NC(=O)[C@H](CCCCN)NC(=O)[C@H](C)NC(=O)[C@@H]1CCCN1C(=O)[C@H](C)NC(=O)[C@H](CCCCN)NC(=O)c1ccc2c(c1)C(=O)OC21c2ccc(O)cc2Oc2cc(O)ccc21)C(=O)N[C@@H](C)C(=O)N[C@@H](CCCCN)C(N)=O` [HBHA (185–194)] (5FAM-KAPAKKAAAK-NH2), with “significant cellular uptake”; and `CC[C@H](C)[C@H](NC(=O)[C@H](CCCCN)NC(=O)[C@H](CCC(=O)O)NC(=O)[C@H](Cc1ccc(O)cc1)NC(=O)[C@@H]1CCCN1C(=O)[C@H](CC(=O)O)NC(=O)c1ccc2c(c1)C(=O)OC21c2ccc(O)cc2Oc2cc(O)ccc21)C(=O)NCC(=O)N[C@@H](C)C(=O)N[C@@H](CCC(=O)O)C(=O)N[C@@H](CC(C)C)C(=O)N[C@H](C(=O)N[C@@H](CCCCN)C(N)=O)C(C)C` [Grol2 (63–78)], with “highest cell internalization among MHC II binding epitopes”.
